This is an account of results in patent US12559472B2, “Salts of a compound and the crystalline forms thereof” (HUTCHISON MEDIPHARMA LIMITED, priority 2019, dated 2026).

By solubility is commonly meant the concentration that dissolves in the medium under given conditions. One may read the Solubility as how much of the substance goes into solution per volume.

Data set [1] can be described thus: Solubility in buffers with different pHs and in water (Example 19). The format is physicochemical. The note with it: for solubility at 30 min: 37 °C, thermodynamic from solid. The procedure:
The solubility results were all calculated based on the free form. The buffers with different pHs were prepared according to the United States Pharmacopeia (USP40-NF35).

The subject of the next data set is FGFR. As to conditions: cited from earlier work.

Each structure is given as a SMILES string. Converted amounts (≈) assume the structure as drawn.

As for `CNC(=O)c1cc(CCc2cnc(Nc3ccc(N4C[C@@H](C)N[C@@H](C)C4)cc3)nc2)c(Cl)c(OC)c1` [Compound 78, 4-chloro-3-(2-(2-((4-((3S,5R)-3,5-dimethylpiperazin-1-yl)phenyl)amino)pyrimidin-5-yl)ethyl)-5-methoxy-N-methylbenzamide], in data set [1] (all test media), the “Solubility (in words)” value is reported as “greatly different solubility in different media”. The solubility at 30 min in data set [1] (pH 1.2 buffer (USP), pH 1.2, simulated gastric fluid, pH 1.2 buffer, 30 minutes, calculated based on the free form) is 721 µg/mL (≈ 1420 µM); in data set [1] (pH 2.1 buffer (USP), pH 2.1, aqueous buffer, pH 2.1 buffer, 30 minutes, calculated based on the free form), 174 µg/mL (≈ 342 µM); in data set [1] (pH 4.5 buffer (USP), pH 4.5, aqueous buffer, pH 4.5 buffer, 30 minutes, calculated based on the free form) it was no more than 12600 µg/mL; in data set [1] (pH 6.8 buffer (USP), pH 6.8, aqueous buffer, pH 6.8 buffer, 30 minutes, calculated based on the free form), 67.5 µg/mL (≈ 133 µM); in data set [1] (purified water, water, 30 minutes, calculated based on the free form) it was 2.3 µg/mL (≈ 4.52 µM). Further, in data set [1] (pH 4.5 buffer, 37° C., 30 minutes, calculated based on the free form), the Solubility was 12588.8 µg/mL (≈ 24700 µM). The “Inhibition of FGFR activity” value in the data set with FGFR is recorded as “can effectively inhibit FGFR activity”.
